# From patent US20230123334A1, “AMINO LIPID COMPOUND, PREPARATION METHOD THEREFOR, AND APPLICATION THEREOF” (SHENZHEN SHENXIN BIOTECHNOLOGY CO., LTD., priority 2020, published 2023)
# What was measured:
# Format in all cases: cell-based
# Hela cells [1] = assay: Transfection of Hela cell line, DNA vectors; settings: 75 ng plasmid DNA, GFP cells / total cells
# Procedure: 1. The compound (0.01 mmol) prepared in Example 1 was dissolved in 1 mL of anhydrous ethanol. After ultrasonically dissolved, 10 μL of the resultant amino lipid solution in ethanol was taken and mixed with 5 μL of DOPE solution in ethanol (0.01 m), and then to the obtained mixture was added 35 μL of 0.2M sodium acetate buffer (pH 5.6), and 50 μL of liposome solution was prepared by vortex at a constant rotating speed for 30 s. 4 μL was taken from the 50 μL liposome solution and added to 46 μL of 0.02M sodium acetate buffer (pH 5.6), and the final liposome solution was formed by vortex at a constant rotating speed for 30 s. 5 μL was taken from the final liposome solution and mixed with 75 ng plasmid DNA (psin-EGFP-IRES-Puro, Clontech) dissolved in 5 μL of 0.02 M sodium acetate buffer, and was allowed to stay at room temperature for 30 min to form a lipid/DNA transfection complex.
# 2. 10 μL of the lipid/DNA transfection complex was incubated at room temperature for 30 min, followed by addition of 90 μL of fresh resuspended cells (3-5×10^4 cells) and mixing with a pipette. 100 μL of cells+lipid/DNA complex was transferred to separate wells of a 96-well culture plate immediately, and placed in an incubator containing 5% CO2 at 37° C.
# 3. Hoechst33258 (Invitrogen) was added at a final concentration of 0.2 μg/mL to the cells 20 to 24 hours after initial cell transfection, and cultured in darkness at 37° C. for 15 min. Afterwards, the cells were washed once with a PBS solution, and then added with medium for culture for 20 to 24 h.
# 4. The cells were placed in a high-throughput confocal microscope (Molecular Devices ImageXpress), and four visual fields of the image of the cells were captured for each well, and images at three laser wavelengths were captured for each sample: bright field images of cells (FIG. 2(a) and FIG. 2(b)), Hoechst-staining images showing total nuclei (FIG. 2(c) and FIG. 2(d)) and GFP images showing success in transfection with the plasmid DNA and the expression of GFP (FIG. 2(e) and FIG. 2(f)). MetaXpress software was used to separately count the cells in the Hoechst-staining images and GFP images, and then the number of cells expressing GFP was divided by the total number of nuclei to give the absolute cell transfection efficiency. The absolute transfection efficiency was calculated as follows: […]
# (§1) Cell line: Hela cells (ATCC 35241)
# (§2) Medium: DMEM supplemented with 10% fetal bovine serum (Invitrogen)
# (§3) Screening: cell transfection on 96-well plates
# (§4) Detection (readout): percentage of the number of GFP fluorescent cells relative to the total number of cells (the total number of cells was determined using nucleus dye Hoechst). Lipofectamine2000 (Invitrogen) was used as the positive control, according to the manufacturer's instructions.
# Method: the experimental method was basically the same with Example 4.
# Hela cells [2] = assay: Transfection of Hela cell line, mRNA vectors; settings: 50 ng EGFP mRNA per well
# Procedure: as §1, §2, §3
# as §4, with “Hoechst). A commercially available liposome transfection reagent” for “Hoechst).”, “control group,” for “control,”
# Method: the experimental method was basically the same with Example 4, and the mass of EGFP mRNA for transfection was 50 ng per well.
# HEK293 cells [3] = assay: Preliminary screening as DNA vectors, GFP transfection of HEK293 cells; settings: HEK293 cells; lipid/DOPE liposome with 75 ng plasmid DNA (psin-EGFP-IRES-Puro); number of cells expressing GFP divided by total number of nuclei (Hoechst)
# Outline: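 First, amino lipid and DOPE were vortexed in sodium acetate buffer (pH 5.6) to form liposomes. Next, these were held with 75 ng EGFP plasmid at room temperature for 30 min. Finally, HEK293 cells were added, cultured at 37° C., Hoechst-stained, and GFP+/total nuclei scored by imaging.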
# HEK293 cells [4] = assay: Preliminary screening as mRNA vectors, EGFP mRNA transfection of HEK293 cells; settings: HEK293 cells, 96-well plates, EGFP mRNA 50 ng per well; percentage of GFP fluorescent cells relative to total number of cells (Hoechst)
# Outline: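 Screening format: EGFP mRNA transfection (50 ng/well) into HEK293 in 10% FBS-supplemented DMEM. Percent green fluorescent cells, normalised to Hoechst nuclear count, gave the value; Lipofectamine2000 was the reference transfectant.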
SMILES,Absolute DNA transfection efficiency in Hela cells (Hela cells [1]) [%],Absolute mRNA transfection efficiency in Hela cells (Hela cells [2]) [%],Absolute DNA transfection efficiency in HEK293 cells (HEK293 cells [3]) [%],Absolute mRNA transfection efficiency in HEK293 cells (HEK293 cells [4]) [%]
CCCCCCCCCCCSc1nc(NCCN(C)C)nc(SCCCCCCC)n1 [Compound S7S11D1],5.9,5.9,,
CCCCCCCCCCCSc1nc(NCCN2CCOCC2)nc(SCCCCCCC)n1 [Compound S7S11D2],13.6,13.6,,
CCCCCCCCCCCSc1nc(NCCN2CCCCC2)nc(SCCCCCCC)n1 [Compound S7S11D4],7.9,7.9,,
CCCCCCCCCCCSc1nc(NCCN(CC)CC)nc(SCCCCCCC)n1 [Compound S7S11D7],5.2,5.2,,
CCCCCCCCCCCCSc1nc(NCCN(C)C)nc(SCCCCCCC)n1 [Compound S7S12D1],4.2,4.1,,
CCCCCCCCCCCCSc1nc(NCCN2CCOCC2)nc(SCCCCCCC)n1 [Compound S7S12D2],9.2,9.2,,
CCCCCCCCCCCCSc1nc(NCCN2CCCCC2)nc(SCCCCCCC)n1 [Compound S7S12D4],4.7,4.7,,
CCCCCCCCCCCCSc1nc(NCCN(CC)CC)nc(SCCCCCCC)n1 [Compound S7S12D7],3.5,3.5,,
CCCCCCCCCCCNc1nc(NCCN(C)C)nc(SCCCCCCCC)n1 [Compound S8N11D1],21.12,21.2,,
CCCCCCCCCCCNc1nc(NCCN2CCOCC2)nc(SCCCCCCCC)n1 [Compound S8N11D2],12.7,12.7,,
CCCCCCCCCCCNc1nc(NCCN2CCCCC2)nc(SCCCCCCCC)n1 [Compound S8N11D4],7.6,7.6,,
CCCCCCCCCCCNc1nc(NCCN(CC)CC)nc(SCCCCCCCC)n1 [Compound S8N11D7],12.2,12.3,,
CCCCCCCCCCCCNc1nc(NCCN(C)C)nc(SCCCCCCCC)n1 [Compound S8N12D1],11.5,11.5,,
CCCCCCCCCCCCNc1nc(NCCN2CCOCC2)nc(SCCCCCCCC)n1 [Compound S8N12D2],19.3,19.3,,
CCCCCCCCCCCCNc1nc(NCCN2CCCCC2)nc(SCCCCCCCC)n1 [Compound S8N12D4],3.81,3.8,,
CCCCCCCCCCCCNc1nc(NCCN(CC)CC)nc(SCCCCCCCC)n1 [Compound S8N12D7],4.7,4.7,,
CCCCCCCCCCCCCNc1nc(NCCN(C)C)nc(SCCCCCCCC)n1 [Compound S8N13D1],9.7,9.7,,
CCCCCCCCCCCCCNc1nc(NCCN2CCOCC2)nc(SCCCCCCCC)n1 [Compound S8N13D2],9.83,9.8,,
CCCCCCCCCCCCCNc1nc(NCCN2CCCCC2)nc(SCCCCCCCC)n1 [Compound S8N13D4],1.8,1.8,,

SMILES,Absolute DNA transfection efficiency in Hela cells (Hela cells [1]) [%],Absolute mRNA transfection efficiency in Hela cells (Hela cells [2]) [%],Absolute DNA transfection efficiency in HEK293 cells (HEK293 cells [3]) [%],Absolute mRNA transfection efficiency in HEK293 cells (HEK293 cells [4]) [%]
CCCCCCCCCCCCCNc1nc(NCCN(CC)CC)nc(SCCCCCCCC)n1 [Compound S8N13D7],4.5,4.5,,
CCCCCCCCCCCSc1nc(NCCN(C)C)nc(SCCCCCCCC)n1 [Compound S8S11D1],4.59,4.9,,
CCCCCCCCCCCSc1nc(NCCN2CCOCC2)nc(SCCCCCCCC)n1 [Compound S8S11D2],8.9,8.6,,
CCCCCCCCCCCSc1nc(NCCN2CCCCC2)nc(SCCCCCCCC)n1 [Compound S8S11D4],4.5,4.5,,
CCCCCCCCCCCSc1nc(NCCN(CC)CC)nc(SCCCCCCCC)n1 [Compound S8S11D7],5.7,5.7,,
CCCCCCCCCCCCSc1nc(NCCN(C)C)nc(SCCCCCCCC)n1 [Compound S8S12D1],5.4,5.4,,
CCCCCCCCCCCCSc1nc(NCCN2CCOCC2)nc(SCCCCCCCC)n1 [Compound S8S12D2],8.7,8.7,,
CCCCCCCCCCCCCCCCNc1nc(NCC2CCN(C)CC2)nc(N(CCCCCCCCCCCC)CCCCCCCCCCCC)n1 [N16^2N12D10],,,1.5,0.0
CCCCCCCCCCCCCCCCCCNc1nc(NCCN(C)C)nc(N(CCCCCCCCCCCC)CCCCCCCCCCCC)n1 [N18^2N12D1],,,1.0,0.4
CCCCCCCCCCCCCCCCCCNc1nc(NCCN2CCOCC2)nc(N(CCCCCCCCCCCC)CCCCCCCCCCCC)n1 [N18^2N12D2],,,0.0,0.1
CCCCCCCCCCCCCCCCCCNc1nc(NCCN2CCCC2)nc(N(CCCCCCCCCCCC)CCCCCCCCCCCC)n1 [N18^2N12D3],,,1.5,3.4
CCCCCCCCCCCCCCCCCCNc1nc(NCCN2CCCCC2)nc(N(CCCCCCCCCCCC)CCCCCCCCCCCC)n1 [N18^2N12D4],,,0.9,1.2
CCCCCCCCCCCCCCCCCCNc1nc(NCCN2CCN(C)CC2)nc(N(CCCCCCCCCCCC)CCCCCCCCCCCC)n1 [N18^2N12D5],,,0.7,0.7
CCCCCCCCCCCCCCCCCCNc1nc(NCCCN(C)C)nc(N(CCCCCCCCCCCC)CCCCCCCCCCCC)n1 [N18^2N12D6],,,1.3,2.1
CCCCCCCCCCCCCCCCCCNc1nc(NCCN(CC)CC)nc(N(CCCCCCCCCCCC)CCCCCCCCCCCC)n1 [N18^2N12D7],,,0.2,0.7
CCCCCCCCCCCCCCCCCCNc1nc(NCCCN2CCOCC2)nc(N(CCCCCCCCCCCC)CCCCCCCCCCCC)n1 [N18^2N12D8],,,0.4,2.3
CCCCCCCCCCCCCCCCCCNc1nc(NCCCN2CCN(C)CC2)nc(N(CCCCCCCCCCCC)CCCCCCCCCCCC)n1 [N18^2N12D9],,,0.6,0.6
CCCCCCCCCCCCCCCCCCNc1nc(NCC2CCN(C)CC2)nc(N(CCCCCCCCCCCC)CCCCCCCCCCCC)n1 [N18^2N12D10],,,0.7,2.2
